Read-outs that look alike come from different tables or passages of the source.
Tests used:
[1] = system: PfArk2 (PF3D7_0309200) cKD parasites; assay: Inhibitor susceptibility assay, PfArk2 conditional knockdown line; assay type: cell-based, Plasmodium falciparum; details: cKD versus control
Description: Compound susceptibility assays using P. falciparum Ark1 and Ark2 cKD lines were carried out as previously described^[13]. Ark1 (PF3D7_0605300) and Ark2 (PF3D7_0309200) cKD lines generated by fusing the coding sequence and non-coding RNA aptamer sequences in the 5’- and 3’-UTR, permitting translation regulation using the TetR-DOZI system^[14]. Editing was achieved by CRISPR/SpCas9 using the linear pSN054 vector that contains cloning sites for the left homology region (LHR) and the right homology region (RHR), as well as a gene-specific guide RNA under control of the T7 promoter^[15]. The final constructs were sequence-verified and further confirmed by restriction digests. Transfection into Cas9- and T7 RNA polymerase-expressing NF54 parasites was carried out by pre-loading erythrocytes with the donor vector as previously described^[16]. Parasite culture was maintained continuously in 500 nM anhydrotetracycline (aTc, Sigma-Aldrich 37919) and drug selection with 2.5 μg/mL of Blasticidin S (RPI Corp B12150-0.1) was initiated four days after transfection. Briefly, synchronous ring-stage Ark1 (PF3D7_0605300) and Ark2 (PF3D7_0309200) cKD parasites, as well as a control parasite line expressing an aptamer-regulatable fluorescent protein, were maintained in the presence of high aTc (500 nM) or no aTc and distributed into 384-well polystyrene microplates (Corning). […]

[2] = system: pool of barcoded drug-resistant P. falciparum parasites (Dd2 and 3D7 backgrounds); assay type: cell-based, Plasmodium falciparum; details: 3xIC50
Description: The pool consisted of 52 lines (Supplementary File S2) in both the Dd2 and 3D7 backgrounds, including wild-type, that were barcoded at the pfpare locus (PF3D7_0709700)^[18], with unique 11-bp barcode sequences. The pool (triplicate cultures of 1 mL) was exposed to 3 xIC50 of each test compound, including the positive control compound halofuginone that targets prolyl tRNA synthetase. Growth of the pool was measured every 2–3 days by flow cytometry (Beckman CytoFlex 5), staining with 1xSYBR Green I and 200 nM MitoTracker Deep Red, and parasitemia maintained within a range <5% parasitemia. At day 14, samples were harvested, lysed with 0.05% saponin and parasite pellets collected. Barcodes were amplified by PCR and quantified by sequencing using an Oxford Nanopore minION. The change in barcode proportion (log2 fold change, LFC) was measured relative to the no-drug control, with LFC>2.5 indicating cross-resistance.

Structure (SMILES): COc1cc(N2CCC(N3CCN(C)CC3)CC2)ccc1Nc1ncc(Cl)c(Nc2ccccc2S(=O)(=O)C(C)C)n1 [TAE684, NVP-TAE684]
- change in IC50 in PfArk2 cKD [1]: no change in the IC50 value
- barcode population Day 14 ([2]; line 3D7 (Wild type)): 5.080
- barcode population Day 14 ([2]; line 3D7 ABCI3 R2180P): 2.690
- barcode population Day 14 ([2]; line 3D7 ACS10 M300I): 3.200
- barcode population Day 14 ([2]; line 3D7 ACS11 D648Y): 0.620
- barcode population Day 14 ([2]; line 3D7 ATP2 CNV2): 2.100
- barcode population Day 14 ([2]; line 3D7 DHFR-TS G378E): 0.990
- barcode population Day 14 ([2]; line 3D7 DHFR-TS I403L): 3.400
- barcode population Day 14 ([2]; line 3D7 FTb A515T): 1.770
- barcode population Day 14 ([2]; line 3D7 MDR2 K840N): 1.670
- barcode population Day 14 ([2]; line 3D7 NCR1 A1108T): 2.230
- barcode population Day 14 ([2]; line Dd2 (Wild type)): 5.040
- barcode population Day 14 ([2]; line Dd2-pol-delta D308A-E310A): 0.01
- barcode population Day 14 ([2]; line Dd2 ATP4 G358S): 1.130
- barcode population Day 14 ([2]; line Dd2 ATP4 L927V): 1.370
- barcode population Day 14 ([2]; line Dd2 ATP4 Q172H): 3.070
- barcode population Day 14 ([2]; line Dd2 AcAS A597V): 0.650
- barcode population Day 14 ([2]; line Dd2 AcAS T648M): 2.430
- barcode population Day 14 ([2]; line Dd2 AsnRS R487S): 1.530
- barcode population Day 14 ([2]; line Dd2 CARL I1139K-a): 0.010
- barcode population Day 14 ([2]; line Dd2 CARL I1139K-b): 0.230
- barcode population Day 14 ([2]; line Dd2 CARL V1103L): 0.680
- barcode population Day 14 ([2]; line Dd2 CLK3 H259P): 1.590
- barcode population Day 14 ([2]; line Dd2 CPSF Y408S E): 1.340
- barcode population Day 14 ([2]; line Dd2 CPSF Y408S S): 0.580
- barcode population Day 14 ([2]; line Dd2 CRT M343L): 2.390
- barcode population Day 14 ([2]; line Dd2 CSC1 L800P): 1.280
- barcode population Day 14 ([2]; line Dd2 DHFR-TS S216R): 1.710
- barcode population Day 14 ([2]; line Dd2 DHODH C276Y): 3.290
- barcode population Day 14 ([2]; line Dd2 DHODH F227I): 0.650
- barcode population Day 14 ([2]; line Dd2 DHODH I263F): 0.120
- barcode population Day 14 ([2]; line Dd2 DHODH L531F): 0.480
- barcode population Day 14 ([2]; line Dd2 GGPPS S228T): 0.800
- barcode population Day 14 ([2]; line Dd2 HSP90 A41S): 2.760
- barcode population Day 14 ([2]; line Dd2 IleRS E180D): 2.660
- barcode population Day 14 ([2]; line Dd2 IleRS L810F): 1.180
- barcode population Day 14 ([2]; line Dd2 IleRS V500A): 0.960
- barcode population Day 14 ([2]; line Dd2 MCP D195N): 0.270
- barcode population Day 14 ([2]; line Dd2 MCP P214T): 5.790
- barcode population Day 14 ([2]; line Dd2 PI4K S743F+H1484Y): 1.350
- barcode population Day 14 ([2]; line Dd2 PI4K S1320L+L1418F): 1.960
- barcode population Day 14 ([2]; line Dd2 PROTB5 A20V): 1.090
- barcode population Day 14 ([2]; line Dd2 PROTB5 M45I): 1.500
- barcode population Day 14 ([2]; line Dd2 ProRS L482H): 6.690
- barcode population Day 14 ([2]; line Dd2 QRP1 D1863Y): 5.420
- barcode population Day 14 ([2]; line Dd2 TyrRS S234C): 2.590
- barcode population Day 14 ([2]; line Dd2 UDP-GT F37V): 0.250
- barcode population Day 14 ([2]; line Dd2 cytBC1 G33V): 1.410
- barcode population Day 14 ([2]; line Dd2 cytBC1 V284L): 1.550
- barcode population Day 14 ([2]; line Dd2 eEF2 L755F): 1.200
- barcode population Day 14 ([2]; line Dd2 eEF2 Y186N): 1.260
- barcode population Day 14 ([2]; line Dd2 kelch13 C580C): 2.860
- barcode population Day 14 ([2]; line Dd2 kelch13 C580Y): 2.440
- barcode population Day 14 ([2]; line Dd2 kelch13 R539T): 0.670

— paper PMC12707362, “Targeting Aurora Kinases as Essential Cell‐Cycle Regulators to Deliver Multi‐Stage Antimalarials Against Plasmodium Falciparum” (Angewandte Chemie (International Ed. in English), 2025)
